Patent US9650395B2, “Antibacterial compounds and methods for use” (PTC Therapeutics, Inc., priority 2011, dated 2017)
Values after ≈ are worked out from the molar mass of the structure shown.

Tests used:
[1] = test system: super sensitive Gram-negative Escherichia coli (E. coli) BAS849; experiment: Antibacterial activity, microbroth dilution MIC, E. coli BAS849; type: cell-based; settings: Escherichia coli; E. coli BAS849, microbroth dilution; read-out: MIC, BAS849
[2] = test system: Gram-positive Staphylococcus aureus (S. aureus) 29213; experiment: Antibacterial activity, microbroth dilution MIC, S. aureus 29213; type: cell-based; settings: Staphylococcus aureus; S. aureus 29213, microbroth dilution; read-out: MIC, 29213
[3] = test system: control Gram-negative E. coli 25922 strain; experiment: Antibacterial activity, microbroth dilution MIC, E. coli 25922; type: cell-based, Escherichia coli; settings: Escherichia coli; E. coli 25922, microbroth dilution; read-out: MIC, 25922

Row | Compound | MIC [1] | MIC [2] | MIC [3]
1 | CCc1cc(C(=O)O)c(=O)[nH]c1-c1ccc(N2CCCCC2)cc1C [Cpd 52, 5-ethyl-6-[2-methyl-4-(piperidin-1-yl)phenyl]-2-oxo-1,2-dihydropyridine-3-carboxylic acid] | 12.5 to 150 µg/mL (≈ 36.7 to 441 µM) | 12.5 to 150 µg/mL (≈ 36.7 to 441 µM) | 12.5 to 150 µg/mL (≈ 36.7 to 441 µM)
2 | CCc1cc(C(=O)O)c(=O)[nH]c1-c1ccccc1N(C)C [Cpd 54, 6-[2-(dimethylamino)phenyl]-5-ethyl-2-oxo-1,2-dihydropyridine-3-carboxylic acid] | 12.5 to 150 µg/mL (≈ 43.7 to 524 µM) | 12.5 to 150 µg/mL (≈ 43.7 to 524 µM) | 12.5 to 150 µg/mL (≈ 43.7 to 524 µM)
3 | CCc1c(-c2ccc(N(C)C)cc2C)[nH]c(=O)c(C(=O)O)c1O [Cpd 56, 6-[4-(dimethylamino)-2-methylphenyl]-5-ethyl-4-hydroxy-2-oxo-1,2-dihydropyridine-3-carboxylic acid] | 3.5 to 12.5 µg/mL (≈ 11.1 to 39.5 µM) | 3.5 to 12.5 µg/mL (≈ 11.1 to 39.5 µM) | 12.5 to 150 µg/mL (≈ 39.5 to 474 µM)
4 | CCc1cc(C(=O)O)c(=O)[nH]c1-c1ccc(N(C)C)cc1C [Cpd 57, 6-[4-(dimethylamino)-2-methylphenyl]-5-ethyl-2-oxo-1,2-dihydropyridine-3-carboxylic acid] | 12.5 to 150 µg/mL (≈ 41.6 to 499 µM) | 12.5 to 150 µg/mL (≈ 41.6 to 499 µM) | 12.5 to 150 µg/mL (≈ 41.6 to 499 µM)
5 | CCc1c(-c2ccccc2N(C)C)[nH]c(=O)c(C(=O)O)c1O [Cpd 58, 6-[2-(dimethylamino)phenyl]-5-ethyl-4-hydroxy-2-oxo-1,2-dihydropyridine-3-carboxylic acid] | 3.5 to 12.5 µg/mL (≈ 11.6 to 41.3 µM) | 3.5 to 12.5 µg/mL (≈ 11.6 to 41.3 µM) | 12.5 to 150 µg/mL (≈ 41.3 to 496 µM)
6 | CCc1cc(C(=O)O)c(=O)[nH]c1-c1ccc(N2CCCCC2)cc1OC [Cpd 59, 5-ethyl-6-[2-methoxy-4-(piperidin-1-yl)phenyl]-2-oxo-1,2-dihydropyridine-3-carboxylic acid] | 12.5 to 150 µg/mL (≈ 35.1 to 421 µM) | 12.5 to 150 µg/mL (≈ 35.1 to 421 µM) | 12.5 to 150 µg/mL (≈ 35.1 to 421 µM)
7 | CCc1c(-c2ccc(OC)cc2N(C)C)[nH]c(=O)c(C(=O)O)c1O [Cpd 60, 6-[2-(dimethylamino)-4-methoxyphenyl]-5-ethyl-4-hydroxy-2-oxo-1,2-dihydropyridine-3-carboxylic acid] | 3.5 to 12.5 µg/mL (≈ 10.5 to 37.6 µM) | 3.5 to 12.5 µg/mL (≈ 10.5 to 37.6 µM) | 12.5 to 150 µg/mL (≈ 37.6 to 451 µM)
8 | CCc1c(-c2ccc(N(C)C)cc2OC)[nH]c(=O)c(C(=O)O)c1O [Cpd 61, 6-[4-(dimethylamino)-2-methoxyphenyl]-5-ethyl-4-hydroxy-2-oxo-1,2-dihydropyridine-3-carboxylic acid] | 3.5 to 12.5 µg/mL (≈ 10.5 to 37.6 µM) | 3.5 to 12.5 µg/mL (≈ 10.5 to 37.6 µM) | 12.5 to 150 µg/mL (≈ 37.6 to 451 µM)
9 | CCc1cc(C(=O)O)c(=O)[nH]c1-c1ccc(N(C)C)cc1OC [Cpd 62, 6-[4-(dimethylamino)-2-methoxyphenyl]-5-ethyl-2-oxo-1,2-dihydropyridine-3-carboxylic acid] | 12.5 to 150 µg/mL (≈ 39.5 to 474 µM) | 12.5 to 150 µg/mL (≈ 39.5 to 474 µM) | 12.5 to 150 µg/mL (≈ 39.5 to 474 µM)
10 | CCc1c(-c2ccc(N(C)C)c(C)c2)[nH]c(=O)c(C(=O)O)c1O [Cpd 63, 6-[4-(dimethylamino)-3-methylphenyl]-5-ethyl-4-hydroxy-2-oxo-1,2-dihydropyridine-3-carboxylic acid] | 1 to 3.5 µg/mL (≈ 3.16 to 11.1 µM) | 3.5 to 12.5 µg/mL (≈ 11.1 to 39.5 µM) | 12.5 to 150 µg/mL (≈ 39.5 to 474 µM)
11 | CCc1cc(C(=O)O)c(=O)[nH]c1-c1ccc(N(C)C)c(OC)c1 [Cpd 64, 6-[4-(dimethylamino)-3-methoxyphenyl]-5-ethyl-2-oxo-1,2-dihydropyridine-3-carboxylic acid] | 3.5 to 12.5 µg/mL (≈ 11.1 to 39.5 µM) | 12.5 to 150 µg/mL (≈ 39.5 to 474 µM) | 12.5 to 150 µg/mL (≈ 39.5 to 474 µM)
12 | CCc1c(-c2ccc(N(C)C)c(OC)c2)[nH]c(=O)c(C(=O)O)c1O [Cpd 65, 6-[4-(dimethylamino)-3-methoxyphenyl]-5-ethyl-4-hydroxy-2-oxo-1,2-dihydropyridine-3-carboxylic acid] | 3.5 to 12.5 µg/mL (≈ 10.5 to 37.6 µM) | 12.5 to 150 µg/mL (≈ 37.6 to 451 µM) | 12.5 to 150 µg/mL (≈ 37.6 to 451 µM)
13 | CCc1cc(C(=O)O)c(=O)[nH]c1-c1ccc(N2CCCC2)c(OC)c1 [Cpd 66, 5-ethyl-6-[3-methoxy-4-(pyrrolidin-1-yl)phenyl]-2-oxo-1,2-dihydropyridine-3-carboxylic acid] | 3.5 to 12.5 µg/mL (≈ 10.2 to 36.5 µM) | 12.5 to 150 µg/mL (≈ 36.5 to 438 µM) | 12.5 to 150 µg/mL (≈ 36.5 to 438 µM)
14 | CCc1c(-c2ccc(N3CCCC3)c(OC)c2)[nH]c(=O)c(C(=O)O)c1O [Cpd 67, 5-ethyl-4-hydroxy-6-[3-methoxy-4-(pyrrolidin-1-yl)phenyl]-2-oxo-1,2-dihydropyridine-3-carboxylic acid] | 3.5 to 12.5 µg/mL (≈ 9.77 to 34.9 µM) | 1 to 3.5 µg/mL (≈ 2.79 to 9.77 µM) | 12.5 to 150 µg/mL (≈ 34.9 to 419 µM)
15 | CCc1c(-c2ccc(N3CCCCC3)c(OC)c2)[nH]c(=O)c(C(=O)O)c1O [Cpd 69, 5-ethyl-4-hydroxy-6-[3-methoxy-4-(piperidin-1-yl)phenyl]-2-oxo-1,2-dihydropyridine-3-carboxylic acid] | 3.5 to 12.5 µg/mL (≈ 9.4 to 33.6 µM) | 3.5 to 12.5 µg/mL (≈ 9.4 to 33.6 µM) | 12.5 to 150 µg/mL (≈ 33.6 to 403 µM)
16 | CCc1cc(C(=O)O)c(=O)[nH]c1-c1ccc(N2CCCC2)c(C)c1 [Cpd 70, 5-ethyl-6-[3-methyl-4-(pyrrolidin-1-yl)phenyl]-2-oxo-1,2-dihydropyridine-3-carboxylic acid] | < 1 µg/mL | 12.5 to 150 µg/mL (≈ 38.3 to 460 µM) | 12.5 to 150 µg/mL (≈ 38.3 to 460 µM)
17 | CCc1c(-c2ccc(N3CCCC3)c(C)c2)[nH]c(=O)c(C(=O)O)c1O [Cpd 71, 5-ethyl-4-hydroxy-6-[3-methyl-4-(pyrrolidin-1-yl)phenyl]-2-oxo-1,2-dihydropyridine-3-carboxylic acid] | 1 to 3.5 µg/mL (≈ 2.92 to 10.2 µM) | 3.5 to 12.5 µg/mL (≈ 10.2 to 36.5 µM) | 12.5 to 150 µg/mL (≈ 36.5 to 438 µM)
18 | CCc1cc(C(=O)O)c(=O)[nH]c1-c1ccc(N2CCCCC2)c(C)c1 [Cpd 72, 5-ethyl-6-[3-methyl-4-(piperidin-1-yl)phenyl]-2-oxo-1,2-dihydropyridine-3-carboxylic acid] | 3.5 to 12.5 µg/mL (≈ 10.3 to 36.7 µM) | 12.5 to 150 µg/mL (≈ 36.7 to 441 µM) | 12.5 to 150 µg/mL (≈ 36.7 to 441 µM)
19 | CCc1c(-c2ccc(N3CCCCC3)c(C)c2)[nH]c(=O)c(C(=O)O)c1O [Cpd 73, 5-ethyl-4-hydroxy-6-[3-methyl-4-(piperidin-1-yl)phenyl]-2-oxo-1,2-dihydropyridine-3-carboxylic acid] | 3.5 to 12.5 µg/mL (≈ 9.82 to 35.1 µM) | 3.5 to 12.5 µg/mL (≈ 9.82 to 35.1 µM) | 12.5 to 150 µg/mL (≈ 35.1 to 421 µM)
20 | CCc1c(-c2ccc(F)cc2)[nH]c(=O)c(C(=O)O)c1O [Cpd 74, 5-ethyl-6-(4-fluorophenyl)-4-hydroxy-2-oxo-1,2-dihydropyridine-3-carboxylic acid] | 3.5 to 12.5 µg/mL (≈ 12.6 to 45.1 µM) | 12.5 to 150 µg/mL (≈ 45.1 to 541 µM) | 12.5 to 150 µg/mL (≈ 45.1 to 541 µM)
21 | CCc1cc(C(=O)O)c(=O)[nH]c1-c1ccc(Cl)cc1 [Cpd 76, 6-(4-chlorophenyl)-5-ethyl-2-oxo-1,2-dihydropyridine-3-carboxylic acid] | 12.5 to 150 µg/mL (≈ 45 to 540 µM) | 12.5 to 150 µg/mL (≈ 45 to 540 µM) | 12.5 to 150 µg/mL (≈ 45 to 540 µM)
22 | CCc1c(-c2ccc(Cl)cc2)[nH]c(=O)c(C(=O)O)c1O [Cpd 77, 6-(4-chlorophenyl)-5-ethyl-4-hydroxy-2-oxo-1,2-dihydropyridine-3-carboxylic acid] | 1 to 3.5 µg/mL (≈ 3.4 to 11.9 µM) | 3.5 to 12.5 µg/mL (≈ 11.9 to 42.6 µM) | 12.5 to 150 µg/mL (≈ 42.6 to 511 µM)
23 | CCc1cc(C(=O)O)c(=O)[nH]c1-c1ccc(Br)cc1 [Cpd 78, 6-(4-bromophenyl)-5-ethyl-2-oxo-1,2-dihydropyridine-3-carboxylic acid] | 3.5 to 12.5 µg/mL (≈ 10.9 to 38.8 µM) | 12.5 to 150 µg/mL (≈ 38.8 to 466 µM) | 12.5 to 150 µg/mL (≈ 38.8 to 466 µM)
24 | CCc1c(-c2ccc(Br)cc2)[nH]c(=O)c(C(=O)O)c1O [Cpd 79, 6-(4-bromophenyl)-5-ethyl-4-hydroxy-2-oxo-1,2-dihydropyridine-3-carboxylic acid] | < 1 µg/mL | 3.5 to 12.5 µg/mL (≈ 10.4 to 37 µM) | 12.5 to 150 µg/mL (≈ 37 to 444 µM)
25 | CCc1cc(C(=O)O)c(=O)[nH]c1-c1ccc(I)cc1 [Cpd 80, 5-ethyl-6-(4-iodophenyl)-2-oxo-1,2-dihydropyridine-3-carboxylic acid] | 3.5 to 12.5 µg/mL (≈ 9.48 to 33.9 µM) | 12.5 to 150 µg/mL (≈ 33.9 to 406 µM) | 12.5 to 150 µg/mL (≈ 33.9 to 406 µM)
26 | CCc1c(-c2ccc(I)cc2)[nH]c(=O)c(C(=O)O)c1O [Cpd 81, 5-ethyl-4-hydroxy-6-(4-iodophenyl)-2-oxo-1,2-dihydropyridine-3-carboxylic acid] | 1 to 3.5 µg/mL (≈ 2.6 to 9.09 µM) | 3.5 to 12.5 µg/mL (≈ 9.09 to 32.5 µM) | 12.5 to 150 µg/mL (≈ 32.5 to 389 µM)
27 | CCc1cc(C(=O)O)c(=O)[nH]c1-c1ccc(N2CC3(CCCCC3)CC2=O)cc1 [Cpd 118, 5-ethyl-2-oxo-6-[4-(3-oxo-2-azaspiro[4.5]dec-2-yl)phenyl]-1,2-dihydropyridine-3-carboxylic acid] | 3.5 to 12.5 µg/mL (≈ 8.87 to 31.7 µM) | 12.5 to 150 µg/mL (≈ 31.7 to 380 µM) | 12.5 to 150 µg/mL (≈ 31.7 to 380 µM)
28 | CCc1cc(C(=O)O)c(=O)[nH]c1-c1ccc(N2C(=O)C3C=CC2C3)cc1 (stereo not drawn) [Cpd 119, 5-ethyl-2-oxo-6-[4-(3-oxo-2-azabicyclo[2.2.1]hept-5-en-2-yl)phenyl]-1,2-dihydropyridine-3-carboxylic acid] | 1 to 3.5 µg/mL (≈ 2.85 to 9.99 µM) | 12.5 to 150 µg/mL (≈ 35.7 to 428 µM) | 12.5 to 150 µg/mL (≈ 35.7 to 428 µM)
29 | CCc1cc(C(=O)O)c(=O)[nH]c1-c1ccc(N2CC(OC3CCCCO3)C2)cc1 (stereo not drawn) [Cpd 120, 5-ethyl-2-oxo-6-{4-[3-(tetrahydro-2H-pyran-2-yloxy)azetidin-1-yl]phenyl}-1,2-dihydropyridine-3-carboxylic acid] | < 1 µg/mL | 12.5 to 150 µg/mL (≈ 31.4 to 376 µM) | 12.5 to 150 µg/mL (≈ 31.4 to 376 µM)
